The values that follow are results of earlier work, collected in PMC8160438, “A Novel Heptapeptide, GPPGPAG Transfers to the Brain, and Ameliorates Memory Dysfunction and Dendritic Atrophy in Alzheimer’s Disease Model Mice” (Frontiers in Pharmacology, 2021).

For the data set the following is noted: in vivo, cited from earlier work. The method, then:
In Figure 6H, the mean value of GPPGPAG in the cerebral cortex is 2.748 μg/g of tissue at 180 min after p.o. administration of 500 mg/mouse. When 10 mg/kg GPPGPAG is applied per orally, the transferred amount of GPPGPAG in the brain is calculated as 0.598 pmol. […] Identification of the BBB transporting system for GPPGPAG should be done in future.

Turning to Gly-Pro, the transport into brain entry is reported as “transported into brain”.
“RPRTRLHTHRNR-NH2 [12-amino acid peptide that crosses the blood-brain barrier]”: the “crossing of the blood-brain barrier” value (po) is given as “crosses the blood-brain barrier (BBB) without digestion”.
In the case of Tyr-Pro, the transport into brain result is given as “transported into brain”.
